From US20220235034A1, “SELECTIVE HISTAMINE H3 RECEPTOR ANTAGONISTS FOR TREATING AUTISM SPECTRUM DISORDER” (RICHTER GEDEON NYRT., priority 2019, published 2022)
Entries after “also recorded” stand apart in the source; their conditions may differ.

What was measured:
[1] = test system: prenatal valproate exposure model; details: dose of risperidone applied in the present study (0.003 mg/kg); cited from earlier work
[2] = test system: prenatally valproate-treated rats; experiment: social recognition memory in the 3-chamber apparatus in prenatally valproate-treated rats; type: in vivo, rat; details: postnatal day 60
Method: In this method, time-mated female Wistar rats are administered a single dose of VPA (600 mg/kg, i.p.) on gestational day 12.5. Offspring are housed according to standard laboratory conditions until time of behavioral testing. Animals are housed in groups of 4 in conventional cages and maintained at 22-24° C. on a standard 12 hours light/dark cycle, with food and water available ad libitum. After investigational drug treatment, offspring are examined behaviorally in tests relevant for the assessment of autistic behavior. These tests include social play, social preference and social recognition memory. These tests are suitable to assess behavioral elements that represent core ASD symptoms in experimental animals. […] Doses of the investigational drug were corrected for the dicitrate salt with a correction factor of 2.07 and are expressed as free base. […]
(§1) The social preference and recognition memory assays in a 3-chamber apparatus are further indicators of intact social behavior in rats. […] On postnatal day 59, prenatally VPA-treated rats are assessed for their social preference following 8 days of per os treatment with the test compound. On postnatal day 60, the same rats are assessed for their social recognition memory after 9 days of per os treatment with the test compound. […]

[3] = test system: prenatally valproate-treated rats; experiment: social preference in the 3-chamber apparatus in prenatally valproate-treated rats; type: in vivo, rat; details: postnatal day 59
Method: (§2) In this method, time-mated female Wistar rats are administered a single dose of VPA (600 mg/kg, i.p.) on gestational day 12.5. Offspring are housed according to standard laboratory conditions until time of behavioral testing. Animals are housed in groups of 4 in conventional cages and maintained at 22-24° C. on a standard 12 hours light/dark cycle, with food and water available ad libitum. After investigational drug treatment, offspring are examined behaviorally in tests relevant for the assessment of autistic behavior. These tests include social play, social preference and social recognition memory. These tests are suitable to assess behavioral elements that represent core ASD symptoms in experimental animals. Efficaciousness of an investigational compound (ie. improvement of behavioral deficits induced by prenatal VPA exposure) may indicate usefulness in the pharmacotherapy of core symptoms of ASD. Doses of the investigational drug were corrected for the dicitrate salt with a correction factor of 2.07 and are expressed as free base. Reference is herein made to a parallel patent application filed by the applicant with the title of “Selective histamine H3 receptor antagonist acid addition salts and process for the preparation thereof” wherein the salts, including dicitrate salt is disclosed in detail.
as §1, with “rats. The preference of a conspecific over an inanimate object as well as the ability to distinguish between familiar and novel conspecifics are necessary for normal social functioning and are defective in the prenatal VPA model in rats (Bambini-Junior et al., Brain Res. 2011, 1408:8-16).” for “rats.”

[4] = test system: prenatally valproate-exposed rat pups; experiment: maternal deprivation-induced ultrasonic vocalization in prenatally valproate-exposed rat pups; type: in vivo; details: 0.01-1 mg/kg oral, co-administered with oral risperidone 0.003 mg/kg; prenatal valproate 300 mg/kg
Method: Maternal deprivation-induced ultrasonic vocalization in rat pups is a readout of socio-communicational function that is impaired in offspring after prenatal exposure to VPA (Gandal et al., Biol. Psychiatry 2010, 68, 1100-1106). To induce ultrasonic calls, prenatally VPA treated rat pups are placed individually into a cage where calls are being recorded with bat microphones. Calls are digitized with an audio filter and ultrasonic vocalization is recorded and quantified with SonoTrack software (Metris bv. The Netherlands). Baseline vocalization is measured on postnatal days 11-12 days for 10 min. Animals are divided into homogenous groups based on baseline vocalizations. On postnatal day 13, animals are treated p.o. with the appropriate doses of drug or vehicle 60 min before measurement and then returned to their nests until recording. Ultrasonic call counts are recorded for 10 min. Statistical analysis is performed on ultrasonic call counts with the non-parametric Kruskal-Wallis test and the post hoc Dunnett test.
The behavioral effect of the co-administration of 1-[4-(4-{3-[(2R)-2-methyl-pyrrolidin-1-yl]-propoxy)-phenoxy)-piperidin-1-yl]-ethan-1-one dicitrate and risperidone was studied in prenatally valproate-exposed (300 mg/kg) rat pups on ultrasound emissions induced by separation from their mothers. […]

[5] = test system: prenatally valproate-treated rats; experiment: social play assay in prenatally valproate-treated rats; type: in vivo, rat; details: postnatal day 30
Method: as §2
Social play is a type of social interaction that is highly typical of adolescent mammals including rodents as well as humans (Vanderschuren and Trezza, Curr. Topics Behav. Neurosci. 2014, 16:189-212). Social play behavior is indicative of healthy social functioning in adult life and is defective after prenatal VPA treatment in the offspring (Schneider and Przewlocki Neuropsychopharmacology 2005, 30:80-89). At postnatal day 30, following 8 days treatment with the test compound, prenatally VPA-treated rats are evaluated for juvenile play behavior. The test is carried out in a test arena unknown to the rats with pairs of animals from the same treatment group over a 15 min trial. Animals are scored for duration of social play behavior. […]

| Compound | efficacy signal in the prenatal valproate exposure model [1] | effect on social recognition memory versus VPA+VEH familiar ([2]; 1 mg/kg per os once daily for 9 days, dicitrate) | reversal of the social recognition deficit induced by prenatal valproate treatment ([2]; per os once daily for 9 days, doses 0.01, 0.1 and 1 mg/kg) | effect on social preference versus VPA+VEH ([3]; 0.1 mg/kg per os once daily for 8 days) | effect on social preference versus VPA+VEH ([3]; 1 mg/kg per os once daily for 8 days, dicitrate) | reversal of the social preference deficit induced by prenatal valproate treatment ([3]; per os once daily for 8 days, doses 0.01, 0.1 and 1 mg/kg) | reversal of the socio-communicational defect (ultrasound emissions induced by separation from mothers) [4] | significance of effect on social play versus VPA+VEH ([5]; 0.1 mg/kg per os once daily for 8 days, dicitrate) | significance of effect on social play versus VPA+VEH ([5]; 1 mg/kg per os once daily for 8 days) | reversal of the social play deficit induced by prenatal valproate treatment (duration of social play behavior) ([5]; per os once daily for 8 days, doses 0.01, 0.1 and 1 mg/kg (as free base), dicitrate) |
| --- | --- | --- | --- | --- | --- | --- | --- | --- | --- | --- |
| Cc1nc2n(c(=O)c1CCN1CCC(c3noc4cc(F)ccc34)CC1)CCCC2 [risperidone] | produce an efficacy signal |  |  |  |  |  |  |  |  |  |
| CC(=O)N1CCC(Oc2ccc(OCCCN3CCC[C@H]3C)cc2)CC1 [1-[4-(4-{3-[(2R)-2-methylpyrrolidin-1-yl]-propoxy}-phenoxy)-piperidin-1-yl]-ethan-1-on dicitrate] |  | statistically significant; also recorded: fully reversed social recognition memory deficits | reversed the social recognition deficit | statistically significant | statistically significant; also recorded: fully reversed social preference deficits | reversed the social preference deficit | dose-proportionally reversed the socio-communicational defect | statistically significant; also recorded: reaching significance | statistically significant | reversed the social play deficit; also recorded: partially reversed social play deficits |
